{"source": "paper PMC7869707", "about": "(European Journal of Medicinal Chemistry, 2021)", "key": {"293T-ACE2 cells": {"test_system": "293T-ACE2 cells", "experiment": "Cytotoxicity assay", "type": "cell-based", "conditions": "MTT"}, "SARS-CoV-2 PsV": {"test_system": "SARS-CoV-2 PsV", "experiment": "microbe, parasite or virus in culture", "type": "cell-based", "conditions": "for IC50: Severe acute respiratory syndrome coronavirus 2, 293T/ACE2, 48 h, read-out: IC50 (50% inhibitory concentration) against infection of 293T-ACE2 cells by SARS-CoV-2 PsV"}, "VSV-G PsV": {"test_system": "VSV-G PsV", "type": "cell-based"}, "SARS-CoV-2 S-trimer": {"molecular_target": "SARS-CoV-2 S-trimer (Severe acute respiratory syndrome coronavirus 2, UniProt P0DTC2)", "experiment": "biochemical", "type": "binding"}, "SARS-CoV-2 S2 subunit": {"molecular_target": "SARS-CoV-2 S2 subunit (Severe acute respiratory syndrome coronavirus 2, UniProt P0DTC2)", "type": "binding"}, "Vero-E6 cells": {"test_system": "Vero-E6 cells", "experiment": "Cytotoxicity assay", "type": "cell-based", "conditions": "MTT"}, "[1]": {"molecular_target": "SARS-CoV-2 S binding to the ACE2 receptor (Severe acute respiratory syndrome coronavirus 2, UniProt P0DTC2)"}, "[2]": {"test_system": "SARS-CoV-2 S protein mediated membrane fusion of Vero-E6 cells", "type": "cell-based"}}, "data": [{"smiles": "C[C@@H]1O[C@@H](O[C@H]2[C@H](O[C@H]3CC[C@]4(C)[C@H]5CC=C6[C@@H]7CC(C)(C)CC[C@]7(C(=O)OCc7ccccc7)CC[C@@]6(C)[C@]5(C)CC[C@H]4C3(C)C)O[C@H](CO)[C@@H](O[C@@H]3O[C@@H](C)[C@H](O)[C@@H](O)[C@H]3O)[C@@H]2O)[C@H](O)[C@H](O)[C@H]1O", "note": "[Compound 2, 3β-O-[2,4-di-O-(α-L-rhamnopyranosyl)-β-D-glucopyranosyl]-olean-12-en-28-oic acid benzyl ester]", "values": [{"measurement": "Cytotoxicity against 293T-ACE2 cells", "setting": "293T-ACE2 cells", "result": "moderate cytotoxicity"}]}, {"smiles": "COc1ccccc1NC(=O)[C@]12CCC(C)(C)C[C@H]1C1=CC[C@@H]3[C@@]4(C)CC[C@H](O[C@@H]5O[C@H](CO)[C@@H](O[C@@H]6O[C@@H](C)[C@H](O)[C@@H](O)[C@H]6O)[C@H](O)[C@H]5O[C@@H]5O[C@@H](C)[C@H](O)[C@@H](O)[C@H]5O)C(C)(C)[C@@H]4CC[C@@]3(C)[C@]1(C)CC2", "note": "[Compound 12b, N-{3β-O-[2,4-di-O-(a-L-rhamnopyranosyl)-β-D-glucopyranosyl]-olean-12-en-28-oyl}-2-methoxyaniline]", "values": [{"measurement": "IC50", "setting": "SARS-CoV-2 PsV", "result": "< 6", "unit": "µM"}, {"measurement": "Inhibition of VSV-G pseudoviral transduction", "setting": "VSV-G PsV", "result": "no effect"}]}, {"smiles": "C[C@@H]1O[C@@H](O[C@H]2[C@H](O[C@H]3CC[C@]4(C)[C@H]5CC=C6[C@@H]7CC(C)(C)CC[C@]7(C(=O)NCc7ccccc7)CC[C@@]6(C)[C@]5(C)CC[C@H]4C3(C)C)O[C@H](CO)[C@@H](O[C@@H]3O[C@@H](C)[C@H](O)[C@@H](O)[C@H]3O)[C@@H]2O)[C@H](O)[C@H](O)[C@H]1O", "note": "[Compound 12f, N-{3β-O-[2,4-di-O-(a-L-rhamnopyranosyl)-β-D-glucopyranosyl]-olean-12-en-28-oyl}-benzylamine]", "values": [{"measurement": "Cytotoxicity against 293T-ACE2 cells", "setting": "293T-ACE2 cells", "result": "negligible cytotoxicity"}, {"measurement": "Inhibition of VSV-G pseudoviral transduction", "setting": "VSV-G PsV", "result": "no inhibition"}, {"measurement": "Kd", "setting": "SARS-CoV-2 S-trimer", "result": 0.94, "unit": "µM"}, {"measurement": "Fold higher affinity with S2 subunit in relation to S1 subunit", "setting": "SARS-CoV-2 S2 subunit", "result": "more than 1000 fold"}, {"measurement": "Cytotoxicity against Vero-E6 cells", "setting": "Vero-E6 cells", "result": "negligible cytotoxicity"}, {"measurement": "Effect on SARS-CoV-2 S binding to the ACE2 receptor", "setting": "[1]", "result": "no effect"}, {"measurement": "Inhibition of membrane fusion mediated by SARS-CoV-2 S protein", "setting": "[2]", "result": "remarkably inhibit"}]}, {"smiles": "C[C@@H]1O[C@@H](O[C@H]2[C@H](O[C@H]3CC[C@]4(C)[C@H]5CC=C6[C@@H]7CC(C)(C)CC[C@]7(C(=O)NCc7ccccn7)CC[C@@]6(C)[C@]5(C)CC[C@H]4C3(C)C)O[C@H](CO)[C@@H](O[C@@H]3O[C@@H](C)[C@H](O)[C@@H](O)[C@H]3O)[C@@H]2O)[C@H](O)[C@H](O)[C@H]1O", "note": "[Compound 12g, N-{3β-O-[2,4-di-O-(a-L-rhamnopyranosyl)-β-D-glucopyranosyl]-olean-12-en-28-oyl}-2-pyridinemethanamine]", "values": [{"measurement": "Potency against SARS-CoV-2 PsV", "setting": "SARS-CoV-2 PsV", "result": "loss of potency"}]}, {"smiles": "C[C@@H]1O[C@@H](O[C@H]2[C@H](O[C@H]3CC[C@]4(C)[C@H]5CC=C6[C@@H]7CC(C)(C)CC[C@]7(C(=O)NCc7ccco7)CC[C@@]6(C)[C@]5(C)CC[C@H]4C3(C)C)O[C@H](CO)[C@@H](O[C@@H]3O[C@@H](C)[C@H](O)[C@@H](O)[C@H]3O)[C@@H]2O)[C@H](O)[C@H](O)[C@H]1O", "note": "[Compound 12h, N-{3β-O-[2,4-di-O-(a-L-rhamnopyranosyl)-β-D-glucopyranosyl]-olean-12-en-28-oyl}-2-furyl-methylamin]", "values": [{"measurement": "Potency against SARS-CoV-2 PsV", "setting": "SARS-CoV-2 PsV", "result": "lacked potency"}]}, {"smiles": "C[C@@H]1O[C@@H](O[C@H]2[C@H](O[C@H]3CC[C@]4(C)[C@H]5CC=C6[C@@H]7CC(C)(C)CC[C@]7(C(=O)NCc7cccs7)CC[C@@]6(C)[C@]5(C)CC[C@H]4C3(C)C)O[C@H](CO)[C@@H](O[C@@H]3O[C@@H](C)[C@H](O)[C@@H](O)[C@H]3O)[C@@H]2O)[C@H](O)[C@H](O)[C@H]1O", "note": "[Compound 12i, N-{3β-O-[2,4-di-O-(a-L-rhamnopyranosyl)-β-D-glucopyranosyl]-olean-12-en-28-oyl}-2-thiophenemethylamine]", "values": [{"measurement": "IC50", "setting": "SARS-CoV-2 PsV", "result": "< 6", "unit": "µM"}, {"measurement": "Inhibition of VSV-G pseudoviral transduction", "setting": "VSV-G PsV", "result": "no effect"}]}, {"smiles": "C[C@@H]1O[C@@H](O[C@H]2[C@H](O[C@H]3CC[C@]4(C)[C@H]5CC=C6[C@@H]7CC(C)(C)CC[C@]7(C(=O)NCc7ccccc7F)CC[C@@]6(C)[C@]5(C)CC[C@H]4C3(C)C)O[C@H](CO)[C@@H](O[C@@H]3O[C@@H](C)[C@H](O)[C@@H](O)[C@H]3O)[C@@H]2O)[C@H](O)[C@H](O)[C@H]1O", "note": "[Compound 12k, N-{3β-O-[2,4-di-O-(a-L-rhamnopyranosyl)-β-D-glucopyranosyl]-olean-12-en-28-oyl}-2-fluorobenzylamine]", "values": [{"measurement": "IC50", "setting": "SARS-CoV-2 PsV", "result": "< 6", "unit": "µM"}, {"measurement": "Inhibition of VSV-G pseudoviral transduction", "setting": "VSV-G PsV", "result": "no effect"}]}]}
